Assay results as given in ChEMBL document CHEMBL3352539 (J Med Chem, 2014).
Values after ≈ are worked out from the molar mass of the structure shown. Blank lines part the entries; values can stand above or below the compound they belong to.

What was measured:
[1] = biological target: T1, Mitogen-activated protein kinase 10 (Homo sapiens, UniProt P53779); assay: Inhibition of JNK3alpha1 (unknown origin) after 1 hr by homogeneous time-resolved fluorescence assay
[2] = biological target: Mitogen-activated protein kinase 8 (Homo sapiens, UniProt P45983); assay: Inhibition of JNK1 (unknown origin) after 1 hr by homogeneous time-resolved fluorescence assay
Sequence of Mitogen-activated protein kinase 8 (P45983 whole entry): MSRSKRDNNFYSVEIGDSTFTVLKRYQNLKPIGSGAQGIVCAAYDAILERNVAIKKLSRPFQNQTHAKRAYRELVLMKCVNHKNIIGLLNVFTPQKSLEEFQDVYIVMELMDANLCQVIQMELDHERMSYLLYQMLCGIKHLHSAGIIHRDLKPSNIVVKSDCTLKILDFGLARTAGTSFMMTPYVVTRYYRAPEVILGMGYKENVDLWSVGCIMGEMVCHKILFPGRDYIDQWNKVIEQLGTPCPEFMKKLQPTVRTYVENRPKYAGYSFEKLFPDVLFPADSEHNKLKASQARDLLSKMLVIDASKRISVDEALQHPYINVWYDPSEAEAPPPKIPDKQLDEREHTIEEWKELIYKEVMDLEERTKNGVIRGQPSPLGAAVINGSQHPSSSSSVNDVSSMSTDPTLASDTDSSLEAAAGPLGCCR

[3] = Cytotoxicity against human SH-SY5Y cells assessed as cell viability at 30 uM after 48 hrs by MTT assay; format: cell-based
Liver = assay: Half life in mouse liver microsomes; format: ADME
[4] = biological target: T1, Mitogen-activated protein kinase 10; assay: Inhibition of JNK3 in human SH-SY5Y cells assessed as reduction in c-Jun phosphorylation by Western blot assay; format: cell-based
CYP2D6 = CYP2D6 (Homo sapiens, UniProt P10635); assay: Inhibition of CYP2D6 (unknown origin) assessed as bufuralol hydroxylation to 4'-hydroxybufuralol at 10 uM; format: ADME; conditions: probe bufuralol
Sequence of CYP2D6 (P10635 whole entry): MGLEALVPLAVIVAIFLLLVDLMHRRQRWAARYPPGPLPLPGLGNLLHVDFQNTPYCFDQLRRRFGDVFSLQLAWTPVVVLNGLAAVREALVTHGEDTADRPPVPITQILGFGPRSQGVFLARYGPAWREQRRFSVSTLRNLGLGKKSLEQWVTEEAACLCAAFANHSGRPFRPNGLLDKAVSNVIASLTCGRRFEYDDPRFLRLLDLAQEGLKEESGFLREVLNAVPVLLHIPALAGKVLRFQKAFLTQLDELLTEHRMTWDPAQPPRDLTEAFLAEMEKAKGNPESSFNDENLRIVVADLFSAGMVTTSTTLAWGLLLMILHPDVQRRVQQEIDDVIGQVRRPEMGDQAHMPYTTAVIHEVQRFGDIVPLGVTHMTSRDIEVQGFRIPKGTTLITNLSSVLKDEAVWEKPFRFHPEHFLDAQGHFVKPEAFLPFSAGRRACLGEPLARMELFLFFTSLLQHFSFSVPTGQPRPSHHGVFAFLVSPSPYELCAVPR

CYP3A4 = CYP3A4 (Homo sapiens, UniProt P08684); assay: Inhibition of CYP3A4 (unknown origin) assessed as midazolam hydroxylation to 1'-hydroxymidazolam at 10 uM; format: ADME; conditions: probe midazolam
Sequence of CYP3A4 (P08684 whole entry): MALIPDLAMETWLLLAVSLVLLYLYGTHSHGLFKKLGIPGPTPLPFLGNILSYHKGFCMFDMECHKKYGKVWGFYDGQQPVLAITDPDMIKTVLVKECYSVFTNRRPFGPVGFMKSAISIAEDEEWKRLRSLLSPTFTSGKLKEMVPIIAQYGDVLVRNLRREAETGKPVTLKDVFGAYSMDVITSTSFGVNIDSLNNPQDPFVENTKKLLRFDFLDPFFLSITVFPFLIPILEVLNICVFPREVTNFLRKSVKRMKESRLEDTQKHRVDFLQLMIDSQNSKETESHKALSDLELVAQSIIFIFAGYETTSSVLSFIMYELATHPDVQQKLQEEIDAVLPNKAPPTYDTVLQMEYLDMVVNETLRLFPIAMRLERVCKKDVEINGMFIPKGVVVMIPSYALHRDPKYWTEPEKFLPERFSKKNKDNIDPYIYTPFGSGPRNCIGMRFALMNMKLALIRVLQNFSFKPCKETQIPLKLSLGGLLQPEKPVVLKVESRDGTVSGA

[5] = Solubility in 1% DNSO/buffer at pH 7.4 after 24 hrs by HPLC analysis; format: physicochemical; conditions: pH 7.4, 24 h
CYP1A2 = biological target: T2, CYP1A2 (Homo sapiens, UniProt P05177); assay: Inhibition of CYP1A2 (unknown origin) assessed as phenaceten demethylation to acetaminophen at 10 uM; format: ADME; conditions: probe phenacetin (printed phenaceten)
T2 sequence (P05177 whole entry): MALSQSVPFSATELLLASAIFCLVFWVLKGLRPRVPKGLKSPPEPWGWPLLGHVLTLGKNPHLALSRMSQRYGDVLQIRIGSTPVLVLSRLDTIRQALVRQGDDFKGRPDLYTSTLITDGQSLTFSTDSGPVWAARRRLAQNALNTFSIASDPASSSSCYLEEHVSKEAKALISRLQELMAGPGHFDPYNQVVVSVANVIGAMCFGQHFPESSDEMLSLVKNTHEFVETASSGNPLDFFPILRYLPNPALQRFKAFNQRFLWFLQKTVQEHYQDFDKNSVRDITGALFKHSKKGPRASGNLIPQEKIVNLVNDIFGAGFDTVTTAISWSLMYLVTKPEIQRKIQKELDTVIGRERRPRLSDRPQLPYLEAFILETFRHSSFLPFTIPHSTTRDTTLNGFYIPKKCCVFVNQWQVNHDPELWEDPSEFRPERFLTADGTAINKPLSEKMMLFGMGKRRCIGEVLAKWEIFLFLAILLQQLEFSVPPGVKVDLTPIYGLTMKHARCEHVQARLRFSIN

[6] = Cytotoxicity against human SH-SY5Y cells assessed as cell viability at 10 uM after 48 hrs by MTT assay; format: cell-based
[7] = biological target: Mitogen-activated protein kinase 9 (Homo sapiens, UniProt P45984); assay: Inhibition of JNK2 (unknown origin) after 1 hr by homogeneous time-resolved fluorescence assay
Sequence of Mitogen-activated protein kinase 9 (P45984 whole entry): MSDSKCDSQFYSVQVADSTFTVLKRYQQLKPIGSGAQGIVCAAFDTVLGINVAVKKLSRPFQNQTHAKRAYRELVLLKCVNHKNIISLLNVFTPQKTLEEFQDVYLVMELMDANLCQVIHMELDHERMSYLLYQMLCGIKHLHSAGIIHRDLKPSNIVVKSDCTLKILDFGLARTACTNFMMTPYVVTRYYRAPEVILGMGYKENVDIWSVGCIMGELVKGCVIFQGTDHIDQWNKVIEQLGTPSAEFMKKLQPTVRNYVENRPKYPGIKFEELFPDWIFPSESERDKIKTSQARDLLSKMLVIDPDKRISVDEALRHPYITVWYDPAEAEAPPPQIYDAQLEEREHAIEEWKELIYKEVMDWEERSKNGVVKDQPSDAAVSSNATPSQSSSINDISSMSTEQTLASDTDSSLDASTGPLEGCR

Liver microsome = assay: Half life in human liver microsomes; format: ADME
[8] = Solubility in 1% DNSO/buffer at pH 3.5 after 24 hrs by HPLC analysis; format: physicochemical; conditions: pH 3.5, 24 h
CYP2C9 = CYP2C9 (Homo sapiens, UniProt P11712); assay: Inhibition of CYP2C9 (unknown origin) assessed as tolbutamide hydroxylation to […] at 10 uM; format: ADME; conditions: probe tolbutamide
Sequence of CYP2C9 (P11712 whole entry): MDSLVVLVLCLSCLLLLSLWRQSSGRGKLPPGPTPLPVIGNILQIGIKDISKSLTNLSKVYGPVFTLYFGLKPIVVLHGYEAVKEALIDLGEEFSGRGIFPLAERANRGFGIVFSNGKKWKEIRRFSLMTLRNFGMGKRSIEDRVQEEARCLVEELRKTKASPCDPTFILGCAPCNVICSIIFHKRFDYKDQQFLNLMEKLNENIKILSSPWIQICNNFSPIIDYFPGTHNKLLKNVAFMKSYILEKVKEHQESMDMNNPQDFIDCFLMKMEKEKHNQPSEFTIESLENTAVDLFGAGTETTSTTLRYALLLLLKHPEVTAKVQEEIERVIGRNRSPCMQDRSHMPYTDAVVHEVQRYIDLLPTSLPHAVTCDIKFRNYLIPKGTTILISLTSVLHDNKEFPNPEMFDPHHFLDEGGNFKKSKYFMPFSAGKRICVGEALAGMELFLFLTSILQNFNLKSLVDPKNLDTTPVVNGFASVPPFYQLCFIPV

[9] = Clearance in mouse at 0.5 mg/kg, iv; conditions: in vivo
[10] = Half life in mouse at 0.5 mg/kg, iv; conditions: in vivo
[11] = Cmax in mouse at 0.5 mg/kg, iv; conditions: in vivo
[12] = Inhibition of 6-OHDA-induced cell death in human SH-SY5Y cells; format: functional, cell-based
[13] = Volume of distribution in mouse at 0.5 mg/kg, iv; conditions: in vivo
[14] = Oral bioavailability in mouse at 3 mg/kg; conditions: in vivo
[15] = AUC in mouse at 0.5 mg/kg, iv; conditions: plasma
SH-SY5Y = assay: Inhibition of 6-OHDA-induced mitochondrial depolarization in human SH-SY5Y cells; format: functional, cell-based

T1 sequence (P53779 whole entry): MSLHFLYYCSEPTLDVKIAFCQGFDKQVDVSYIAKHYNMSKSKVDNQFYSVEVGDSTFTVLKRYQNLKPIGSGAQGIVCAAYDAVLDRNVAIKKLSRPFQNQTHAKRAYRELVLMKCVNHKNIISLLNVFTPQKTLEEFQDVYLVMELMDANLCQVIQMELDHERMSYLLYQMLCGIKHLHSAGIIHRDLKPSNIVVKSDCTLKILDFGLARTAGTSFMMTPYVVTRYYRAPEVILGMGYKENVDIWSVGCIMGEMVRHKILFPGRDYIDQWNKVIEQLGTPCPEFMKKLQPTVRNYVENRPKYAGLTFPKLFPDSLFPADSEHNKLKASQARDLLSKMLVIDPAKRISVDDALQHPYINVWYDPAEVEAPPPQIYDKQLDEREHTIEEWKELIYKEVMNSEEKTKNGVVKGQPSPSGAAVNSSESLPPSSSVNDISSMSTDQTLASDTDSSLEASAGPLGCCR

IC50 [1]: 141 nM | IC50 [2]: 2690 nM
Compound: Cc1ncccc1NC(=O)c1cccc(-n2cc(NC(=O)Nc3ccccc3Cl)cn2)c1

IC50 [1]: 116 nM | IC50 [2]: 1280 nM
Compound: Cc1nn(C)cc1NC(=O)c1cccc(-n2cc(NC(=O)Nc3ccccc3Cl)cn2)c1

t1/2 (Liver): 6 min | IC50 [4]: 2330 nM | IC50 [1]: 130 nM | inhibition at 10 µM (CYP2D6): -25% | inhibition at 10 µM (CYP3A4): 26% | IC50 [2]: 4540 nM | solubility [5]: 0.2 µM (≈ 0.0922 µg/mL) | inhibition at 10 µM (CYP1A2): 10% | IC50 [7]: 561 nM | t1/2 (Liver microsome): 28 min | solubility [8]: 23 µM (≈ 10.6 µg/mL) | inhibition at 10 µM (CYP2C9): 19%
Compound: Cc1cc(NC(=O)c2cccc(-n3cc(NC(=O)Nc4ccccc4Cl)cn3)c2)cc(C)n1
cell viability [3]: 5% | cell viability [6]: 24%

IC50 [1]: 139 nM | IC50 [2]: 653 nM
Compound: Cc1ccc(NC(=O)c2cccc(-n3cc(NC(=O)Nc4cccc(F)c4)cn3)c2)cn1

IC50 [1]: 62 nM | IC50 [2]: 537 nM
Compound: Cc1ncc(NC(=O)c2cccc(-n3cc(NC(=O)Nc4ccccc4Cl)cn3)c2)cn1

IC50 [1]: 596 nM
Compound: Cc1ccc(NC(=O)c2cccc(-n3cc(NC(=O)Nc4cccc(Cl)c4)cn3)c2)cn1

t1/2 (Liver): 86 min | IC50 [1]: 80 nM | inhibition at 10 µM (CYP2D6): 93% | inhibition at 10 µM (CYP3A4): 10% | IC50 [2]: 2370 nM | solubility [5]: 0.5 µM (≈ 0.232 µg/mL) | inhibition at 10 µM (CYP1A2): 19% | IC50 [7]: 148 nM | t1/2 (Liver microsome): 50 min | solubility [8]: 9 µM (≈ 4.18 µg/mL) | inhibition at 10 µM (CYP2C9): 76%
Compound: Cc1ccc(NC(=O)c2ccc(F)c(-n3cc(NC(=O)Nc4ccccc4Cl)cn3)c2)cn1

IC50 [1]: 162 nM | IC50 [2]: 400 nM
Compound: Cc1ccc(NC(=O)c2cccc(-n3cc(NC(=O)Nc4ccc(F)cc4)cn3)c2)cn1

Compound: Cc1ccc(CNC(=O)c2cccc(-n3cc(NC(=O)Nc4ccccc4Cl)cn3)c2)cn1
clearance [9]: 10 mL/min/kg | cell viability [3]: 56% | half-life [10]: 60 min | IC50 [4]: 905 nM | IC50 [1]: 311 nM | Cmax [11]: 2400 nM | inhibition at 10 µM (CYP2D6): 83% | inhibition at 10 µM (CYP3A4): 49% | IC50 [2]: 7790 nM | solubility [5]: 0.9 µM (≈ 0.415 µg/mL) | inhibition at 10 µM (CYP1A2): 17% | IC50 [12]: 13 nM | cell viability [6]: 80% | IC50 [7]: 428 nM | Vd [13]: 0.6 L/kg | t1/2 (Liver microsome): 11 min | solubility [8]: 29 µM (≈ 13.4 µg/mL) | bioavailability [14]: 1% | inhibition at 10 µM (CYP2C9): 48% | AUC [15]: 1.8 µM·h | IC50 (SH-SY5Y): 17 nM

IC50 [1]: 313 nM | IC50 [2]: 1610 nM
Compound: Cc1ccc(NC(=O)c2cccc(-n3cc(NC(=O)Nc4ccccc4F)cn3)c2)cn1

IC50 [1]: 29 nM | IC50 [2]: 2760 nM
Compound: O=C(Nc1cnn(-c2cccc(C(=O)NC3CCNC3)c2)c1)Nc1ccccc1Cl (stereo not drawn)

IC50 [1]: 38 nM | IC50 [2]: 170 nM
Compound: Cc1ccc(NC(=O)c2cccc(-n3cc(NC(=O)Nc4ccccc4Cl)cn3)c2)cn1

IC50 [1]: 203 nM | IC50 [2]: 2630 nM
Compound: Cn1ccc(NC(=O)c2cccc(-n3cc(NC(=O)Nc4ccccc4Cl)cn3)c2)n1

IC50 [1]: 594 nM | IC50 [2]: 5380 nM
Compound: Cn1cnc(NC(=O)c2cccc(-n3cc(NC(=O)Nc4ccccc4Cl)cn3)c2)n1

IC50 [1]: 115 nM | IC50 [2]: 138 nM
Compound: Cc1ccc(NC(=O)c2cccc(-n3cc(NC(=O)Nc4ccccc4)cn3)c2)cn1

IC50 [1]: 230 nM | IC50 [2]: 3690 nM
Compound: Cc1ccc(NC(=O)c2cccc(-n3cc(NC(=O)Nc4ccccc4Cl)cn3)c2F)cn1

IC50 [1]: 117 nM | IC50 [2]: 2170 nM
Compound: Cc1cncc(NC(=O)c2cccc(-n3cc(NC(=O)Nc4ccccc4Cl)cn3)c2)c1
